Experimental data reported in US20090186918A1, “Triazole Compounds as Lipoxygenase Inhibitors” (priority 2005, published 2009).
Like-named read-outs stand apart in the source and are kept apart here.

Target: T1, purified human 15-lipoxygenase (Homo sapiens, UniProt P16050)
T1 sequence (P16050 1-662): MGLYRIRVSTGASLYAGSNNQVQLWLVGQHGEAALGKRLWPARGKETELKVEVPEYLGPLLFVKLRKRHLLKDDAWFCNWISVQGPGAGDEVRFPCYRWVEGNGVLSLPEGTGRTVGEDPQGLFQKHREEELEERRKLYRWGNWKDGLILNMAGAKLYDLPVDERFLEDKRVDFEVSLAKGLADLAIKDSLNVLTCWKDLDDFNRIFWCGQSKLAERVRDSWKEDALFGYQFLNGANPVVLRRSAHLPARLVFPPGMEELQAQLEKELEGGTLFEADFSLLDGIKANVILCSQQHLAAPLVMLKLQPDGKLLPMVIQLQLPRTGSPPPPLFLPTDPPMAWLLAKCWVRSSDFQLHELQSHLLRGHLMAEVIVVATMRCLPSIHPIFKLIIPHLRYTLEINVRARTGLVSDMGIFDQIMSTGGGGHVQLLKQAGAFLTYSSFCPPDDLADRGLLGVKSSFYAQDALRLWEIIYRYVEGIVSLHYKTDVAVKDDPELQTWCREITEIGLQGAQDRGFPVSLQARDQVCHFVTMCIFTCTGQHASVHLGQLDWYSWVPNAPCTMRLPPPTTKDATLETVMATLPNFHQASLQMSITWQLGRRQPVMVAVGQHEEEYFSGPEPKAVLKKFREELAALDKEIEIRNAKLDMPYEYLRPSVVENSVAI
Experiment: 15-lipoxygenase inhibition assay (arachidonic acid oxidation, 15-HPETE/15-HETE measured by reverse phase HPLC)
Assay type: biochemical
Procedure: The assay employed takes advantage of the ability of lipoxygenases to oxidize polyunsaturated fatty acids, containing a 1,4-cis-pentadiene configuration, to their corresponding hydroperoxy or hydroxyl derivatives. In this particular assay, the lipoxygenase was a purified human 15-lipoxygenase and the fatty acid was arachidonic acid. The assay is performed at room temperature (20-22° C.) and the following are added to each well in a 96-well microtiter plate:
a) 35 μL phosphate buffered saline (PBS) (pH 7.4); b) inhibitor (i.e. compound) or vehicle (0.5 μl DMSO); c) 10 μL of a 10× concentrated solution of 15-lipoxygenase in PBS. The plates are incubated for 5 minutes at room temperature;
d) 5 μl of 0.125 mM arachidonic acid in PBS. The plate is then incubated for 10 minutes at room temperature;
e) the enzymatic reaction is terminated by the addition of 100 μl methanol; and f) the amount of 15-hydroperoxy-eicosatetraenoic acid or 15-hydroxy-eicosatetraenoic acid is measured by reverse phase HPLC.

[1] = purified human 15-lipoxygenase, arachidonic acid substrate, room temperature, read-out: IC50

SMILES | IC50 [1] | IC50
O=C(Nc1ccc(Cl)cc1F)c1c[nH]nn1 [Example 76, 1,2,3-Triazole-4-carboxylic acid 4-chloro-2-fluorophenylamide] | 530 nM | 
O=C(Nc1ccc(C(F)(F)F)cc1C(F)(F)F)c1c[nH]nn1 [Example 36, 1,2,3-Triazole-4-carboxylic acid [2,4-bis(trifluoromethyl)phenyl]amide] | 1160 nM | 
O=C(Nc1ccc(Cl)cc1C(F)(F)F)c1c[nH]nn1 [Example 75, 1,2,3-Triazole-4-carboxylic acid 4-chloro-2-(trifluoromethyl)phenylamide] | 250 nM | 
O=C(Nc1ccc(Br)cn1)c1c[nH]nn1 [Example 35, 1,2,3-Triazole-4-carboxylic acid (5-bromopyridin-2-yl)amide] | 810 nM | 
O=C(Nc1cc(Cl)c(Cl)cc1Cl)c1c[nH]nn1 [Example 12, 1,2,3-Triazole-4-carboxylic acid (2,4,5-trichlorophenyl)amide] | 760 nM | 
Cc1cc(NC(=O)c2c[nH]nn2)ccc1Cl [Example 18, 1,2,3-Triazole-4-carboxylic acid (4-chloro-3-methylphenyl)amide] | 950 nM | 
O=C(Nc1ccc(Cl)cn1)c1c[nH]nn1 [Example 7, 1,2,3-Triazole-4-carboxylic acid (5-chloropyridin-2-yl)amide] | 1800 nM | 
O=C(Nc1ccc(Cl)c(Cl)c1)c1c[nH]nn1 [Example 9, 1,2,3-Triazole-4-carboxylic acid (3,4-dichlorophenyl)amide] | 1600 nM | 
O=C(Nc1ccc(C(F)(F)F)cc1[N+](=O)[O-])c1c[nH]nn1 [Example 73, 1,2,3-Triazole-4-carboxylic acid 2-nitro-4-(trifluoromethyl)phenylamide] | 3800 nM | 
O=C(Nc1cnc2ccccc2c1)c1cn[nH]n1 [Example 1, 1,2,3-Triazole-4-carboxylic acid quinolin-3-ylamide] |  | 1400 nM
O=C(Nc1ccc(Cl)c(Cl)c1Cl)c1c[nH]nn1 [Example 6, 1,2,3-Triazole-4-carboxylic acid (2,3,4-trichlorophenyl)amide] | 330 nM | 
Cc1ccc(NC(=O)c2c[nH]nn2)cc1F [Example 91, 1,2,3-Triazole-4-carboxylic acid (3-fluoro-4-methylphenyl)amide] | 9400 nM | 
O=C(Nc1cc(Cl)cc(Cl)c1)c1c[nH]nn1 [Example 82, 1,2,3-Triazole-4-carboxylic acid (3,5-dichlorophenyl)amide] | 4100 nM | 
